Assay results taken from patent US20260265329A1, “POLYPEPTIDE AND DERIVATIVE THEREOF, COMPOSITION, AND USE THEREOF” (HANGZHOU SCIWIND BIOSCIENCES CO., LTD., priority 2023, published 2026).
Starred links: 1 amine or outer side, 2 acyl side, 3 side chain; linkers in the order of their positions; H or OH if unused. Non-standard residues stand in square brackets, D forms with d. Residues, ends and D or L forms follow the SMILES beside them. *: point of attachment. C20 diacid = O=C(O)CCCCCCCCCCCCCCCCCCC(=O)*; γGlu = O=C(O)[C@H](CCC(=O)[*:2])N[*:1]; Hyp = O=C(O)[C@@H]1C[C@@H](O)CN1

What was measured:
human amylin receptors = target: T1, human amylin receptors (Homo sapiens, UniProt O60896+P30988); test: Luciferase assay in stably transfected amylin receptor/CRE-luc CHO cell line; type: cell-based; conditions: for Relative activity: EC50 ratio of Cagrilintide to the compound, Cagrilintide 100%; for EC50: amylin receptor/CRE-luc CHO cells, 24 hours incubation, luminescence
T1 construct: host or cells: CHO-K1/Ga15/AMY3 cells, further stably transfected with a CRE-luciferase plasmid
T1 sequence (P30988 25-474): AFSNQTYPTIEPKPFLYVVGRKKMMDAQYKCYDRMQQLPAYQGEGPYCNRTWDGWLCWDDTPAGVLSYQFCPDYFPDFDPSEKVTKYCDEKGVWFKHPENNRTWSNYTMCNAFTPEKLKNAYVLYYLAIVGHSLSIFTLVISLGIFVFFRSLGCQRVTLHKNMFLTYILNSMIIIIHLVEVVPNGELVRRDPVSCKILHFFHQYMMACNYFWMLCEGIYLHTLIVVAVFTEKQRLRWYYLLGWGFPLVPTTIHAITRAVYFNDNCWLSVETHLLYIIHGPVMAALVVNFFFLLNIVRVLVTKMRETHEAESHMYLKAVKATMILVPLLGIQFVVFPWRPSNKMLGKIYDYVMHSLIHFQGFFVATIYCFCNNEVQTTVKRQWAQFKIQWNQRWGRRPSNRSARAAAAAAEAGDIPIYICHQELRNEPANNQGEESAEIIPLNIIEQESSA
T1 sequence (O60896 24-148 partner): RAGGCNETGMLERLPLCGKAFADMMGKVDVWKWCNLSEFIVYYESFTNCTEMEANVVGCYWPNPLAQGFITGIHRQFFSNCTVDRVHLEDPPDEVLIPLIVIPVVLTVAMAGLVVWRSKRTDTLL

[1] = Heat accelerated stability assay, 40° C., detection on 7 d and 28 d; type: physicochemical; conditions: for Purity from the reversed phase chromatography-214 nm, 0 d / Purity from the reversed phase chromatography-214 nm, 7 d / Purity from the reversed phase chromatography-214 nm, 28 d: 1 mg/mL, pH about 7.4, 40° C.; for Change (7 d − 0 d): purity on 7 d − purity on 0 d; for Change (7 d − 0 d) / Change (28 d − 0 d): 40° C., pH about 7.4; for Change (28 d − 0 d): purity on 28 d − purity on 0 d
Method: The derivatives (1 mg/mL) were mixed with sodium dihydrogen phosphate (1.42 mg/mL) and dissolved in ultrapure water. After adjusting pH to about 7.4 with hydrochloric acid/sodium hydroxide, the solution was filtered into a sterilized vial in a clean bench using a 0.22 μm sterile filter. The vial was then capped and placed into the stability test chamber at 40° C. Detections were made on Days 7 (7d) and 28 (28d), and during the assay, changes in the characteristics and properties of the polypeptides were observed and recorded. The sample was then centrifuged for 3 min at 10000 rpm at 4° C., and the supernatant was transferred to a liquid phase sample vial for detecting the concentration and purity of the polypeptides using liquid phase chromatography described as below.
Conditions of the reversed phase chromatography Flow rate: 1.0 mL/min; Autosampler temperature: 15° C.; Column temperature: 25° C.; Detection wavelength: 214 nm; Mobile phase A: 100% H2O+0.05% TFA; Mobile phase B: 100% ACN; and Gradient of elution listed in Table 4: […]

| SMILES | Relative activity (human amylin receptors) [%] | EC50 (human amylin receptors) [nM] | Purity from the reversed phase chromatography-214 nm, 0 d [1] | Purity from the reversed phase chromatography-214 nm, 7 d [1] | Purity from the reversed phase chromatography-214 nm, 28 d [1] | Change (7 d − 0 d) [1] | Change (28 d − 0 d) [1] |
| --- | --- | --- | --- | --- | --- | --- | --- |
| CC[C@H](C)[C@H](NC(=O)[C@@H]1CCCN1C(=O)[C@H](CCCCN)NC(=O)[C@H](CC(C)C)NC(=O)[C@H](CC(N)=O)NC(=O)[C@H](CC(N)=O)NC(=O)[C@H](CO)NC(=O)[C@H](CO)NC(=O)[C@H](Cc1c[nH]cn1)NC(=O)[C@H](CCCNC(=N)N)NC(=O)[C@H](CC(C)C)NC(=O)[C@H](Cc1ccccc1)NC(=O)[C@H](CC(=O)O)NC(=O)[C@H](C)NC(=O)[C@H](CC(C)C)NC(=O)[C@H](CCCNC(=N)N)NC(=O)[C@H](CCC(N)=O)NC(=O)[C@H](CC(C)C)NC(=O)[C@@H](NC(=O)[C@H](C)NC(=O)[C@@H](NC(=O)[C@H](CO)NC(=O)[C@H](CC(C)C)NC(=O)[C@H](CCC(N)=O)NC(=O)[C@H](CO)NC(=O)[C@H](C)NC(=O)CC[C@H](NC(=O)CCCCCCCCCCCCCCCCCCC(=O)O)C(=O)O)[C@@H](C)O)C(C)C)C(=O)N[C@@H](CC(C)C)C(=O)N1CCC[C@H]1C(=O)N1CCC[C@H]1C(=O)N[C@H](C(=O)N[C@@H](CC(N)=O)C(=O)N[C@H](C(=O)NCC(=O)N[C@@H](CO)C(=O)N[C@@H](CC(N)=O)C(=O)N[C@H](C(=O)N1C[C@H](O)C[C@H]1C(N)=O)[C@@H](C)O)C(C)C)[C@@H](C)O [M9] ({C20 diacid-γGlu}-ASQLSTAVLQRLADFLRHSSNNLKPILPPTNVGSNT[Hyp]-NH2) | 100 | 0.026 | 88.15 | 89.62 | 90.99 | 1.47 | 2.84 |
| CC[C@H](C)[C@H](NC(=O)[C@@H]1CCCN1C(=O)[C@H](CCCCN)NC(=O)[C@H](CC(C)C)NC(=O)[C@H](CC(N)=O)NC(=O)[C@H](CC(N)=O)NC(=O)[C@H](CO)NC(=O)[C@H](CO)NC(=O)[C@H](Cc1c[nH]cn1)NC(=O)[C@H](CCCNC(=N)N)NC(=O)[C@H](CC(C)C)NC(=O)[C@H](Cc1ccccc1)NC(=O)[C@H](CC(=O)O)NC(=O)[C@H](C)NC(=O)[C@H](CC(C)C)NC(=O)[C@H](CCCNC(=N)N)NC(=O)[C@H](CCC(N)=O)NC(=O)[C@@H](NC(=O)[C@H](C)NC(=O)[C@H](C)NC(=O)[C@@H](NC(=O)[C@H](CO)NC(=O)[C@H](CC(C)C)NC(=O)[C@H](CCC(N)=O)NC(=O)[C@H](CO)NC(=O)[C@H](C)NC(=O)CC[C@H](NC(=O)CCCCCCCCCCCCCCCCCCC(=O)O)C(=O)O)[C@@H](C)O)[C@@H](C)O)C(=O)N[C@@H](CC(C)C)C(=O)N1CCC[C@H]1C(=O)N1CCC[C@H]1C(=O)N[C@H](C(=O)N[C@@H](CC(N)=O)C(=O)N[C@H](C(=O)NCC(=O)N[C@@H](CO)C(=O)N[C@@H](CC(N)=O)C(=O)N[C@H](C(=O)N1C[C@H](O)C[C@H]1C(N)=O)[C@@H](C)O)C(C)C)[C@@H](C)O [M5] ({C20 diacid-γGlu}-ASQLSTAATQRLADFLRHSSNNLKPILPPTNVGSNT[Hyp]-NH2) | 84 | 0.031 | 92.36 | 91.35 | 91.34 | −1.01 | −1.02 |
| CC[C@H](C)[C@H](NC(=O)[C@H](CC(=O)O)NC(=O)[C@H](CCCNC(=N)N)NC(=O)[C@H](CC(=O)O)NC(=O)[C@H](CCCNC(=N)N)NC(=O)[C@H](CC(=O)O)NC(=O)[C@@H](NC(=O)[C@H](Cc1ccccc1)NC(=O)[C@H](Cc1c[nH]cn1)NC(=O)[C@H](CCCNC(=N)N)NC(=O)[C@H](CC(C)C)NC(=O)[C@H](Cc1ccccc1)NC(=O)[C@H](CC(=O)O)NC(=O)[C@H](C)NC(=O)[C@H](CC(C)C)NC(=O)[C@H](CCCNC(=N)N)NC(=O)CNC(=O)[C@H](CC(C)C)NC(=O)[C@@H](NC(=O)[C@H](C)NC(=O)[C@@H](NC(=O)[C@H](CO)NC(=O)[C@H](CC(C)C)NC(=O)[C@H](CCC(N)=O)NC(=O)[C@H](CO)NC(=O)[C@H](C)NC(=O)CC[C@H](NC(=O)CCCCCCCCCCCCCCCCCCC(=O)O)C(=O)O)[C@@H](C)O)C(C)C)[C@@H](C)O)C(=O)N[C@@H](CC(C)C)C(=O)N1CCC[C@H]1C(=O)N1CCC[C@H]1C(=O)N[C@H](C(=O)N[C@@H](CC(N)=O)C(=O)N[C@H](C(=O)NCC(=O)N[C@@H](CO)C(=O)N[C@@H](CC(N)=O)C(=O)N[C@H](C(=O)N1CCC[C@H]1C(N)=O)[C@@H](C)O)C(C)C)[C@@H](C)O [M4] ({C20 diacid-γGlu}-ASQLSTAVLGRLADFLRHFTDRDRDILPPTNVGSNTP-NH2) | 32 | 0.081 | 95 | 94.22 | 92.25 | −0.78 | −2.75 |

Continued, values first:

| Relative activity (human amylin receptors) [%] | EC50 (human amylin receptors) [nM] | Purity from the reversed phase chromatography-214 nm, 0 d [1] | Purity from the reversed phase chromatography-214 nm, 7 d [1] | Purity from the reversed phase chromatography-214 nm, 28 d [1] | Change (7 d − 0 d) [1] | Change (28 d − 0 d) [1] | SMILES |
| --- | --- | --- | --- | --- | --- | --- | --- |
| 39 | 0.066 | 93 | 91.39 | 91.53 | −1.61 | −1.47 | CC[C@H](C)[C@H](NC(=O)[C@@H]1CCCN1C(=O)[C@H](CCCCN)NC(=O)[C@H](CC(C)C)NC(=O)[C@H](CC(N)=O)NC(=O)[C@H](CC(N)=O)NC(=O)[C@H](CO)NC(=O)[C@H](CO)NC(=O)[C@H](Cc1c[nH]cn1)NC(=O)[C@H](CCCNC(=N)N)NC(=O)[C@H](CC(C)C)NC(=O)[C@H](Cc1ccccc1)NC(=O)[C@H](CC(=O)O)NC(=O)[C@H](C)NC(=O)[C@H](CC(C)C)NC(=O)[C@H](CCCNC(=N)N)NC(=O)[C@H](CCC(N)=O)NC(=O)[C@@H](NC(=O)[C@@H](NC(=O)[C@H](C)NC(=O)[C@@H](NC(=O)[C@H](CO)NC(=O)[C@H](CC(C)C)NC(=O)[C@H](CCC(N)=O)NC(=O)[C@H](CO)NC(=O)[C@H](C)NC(=O)CC[C@H](NC(=O)CCCCCCCCCCCCCCCCCCC(=O)O)C(=O)O)[C@@H](C)O)C(C)C)[C@@H](C)O)C(=O)N[C@@H](CC(C)C)C(=O)N1CCC[C@H]1C(=O)N1CCC[C@H]1C(=O)N[C@H](C(=O)N[C@@H](CC(N)=O)C(=O)N[C@H](C(=O)NCC(=O)N[C@@H](CO)C(=O)N[C@@H](CC(N)=O)C(=O)N[C@H](C(=O)N1C[C@H](O)C[C@H]1C(N)=O)[C@@H](C)O)C(C)C)[C@@H](C)O [M7] ({C20 diacid-γGlu}-ASQLSTAVTQRLADFLRHSSNNLKPILPPTNVGSNT[Hyp]-NH2) |
| 68 | 0.038 | 85.15 | 85.16 | 85.44 | 0.01 | 0.29 | CC[C@H](C)[C@H](NC(=O)[C@@H]1CCCN1C(=O)[C@H](CCCCN)NC(=O)[C@H](CC(C)C)NC(=O)[C@H](CC(N)=O)NC(=O)[C@H](CC(N)=O)NC(=O)[C@H](CO)NC(=O)[C@H](CO)NC(=O)[C@H](Cc1c[nH]cn1)NC(=O)[C@H](CCCNC(=N)N)NC(=O)[C@H](CC(C)C)NC(=O)[C@H](Cc1ccccc1)NC(=O)[C@H](CC(=O)O)NC(=O)[C@H](C)NC(=O)[C@H](CC(C)C)NC(=O)[C@H](CCCNC(=N)N)NC(=O)CNC(=O)[C@H](CC(C)C)NC(=O)[C@@H](NC(=O)[C@H](C)NC(=O)[C@@H](NC(=O)[C@H](CO)NC(=O)[C@H](CC(C)C)NC(=O)[C@H](CCC(N)=O)NC(=O)[C@H](CO)NC(=O)[C@H](C)NC(=O)CC[C@H](NC(=O)CCCCCCCCCCCCCCCCCCC(=O)O)C(=O)O)[C@@H](C)O)C(C)C)C(=O)N[C@@H](CC(C)C)C(=O)N1CCC[C@H]1C(=O)N1CCC[C@H]1C(=O)N[C@H](C(=O)N[C@@H](CC(N)=O)C(=O)N[C@H](C(=O)NCC(=O)N[C@@H](CO)C(=O)N[C@@H](CC(N)=O)C(=O)N[C@H](C(=O)N1C[C@H](O)C[C@H]1C(N)=O)[C@@H](C)O)C(C)C)[C@@H](C)O [M2] ({C20 diacid-γGlu}-ASQLSTAVLGRLADFLRHSSNNLKPILPPTNVGSNT[Hyp]-NH2) |
